Assay results published in patent US20090326037A1 (priority 2005, published 2009).
Several values for one entry are separate records, joined by “and”; a condition that tells them apart may be missing. Identical values can stand only once. Counter-ions that a name gives are not always drawn. Like-named read-outs stand apart in the source and are kept apart here.

Assays:
[1] = system: influenza A/Singapore/1/57 virus; assay: microbe, parasite or virus in culture; type: cell-based; settings: for Percent of inhibition of OD 490: added 30 min prior to infection
[2] = system: avian influenza virus (H5N1); type: in vivo, white mice; settings: orally
[3] = Toxicity (lethal effect, LD50) in mice; type: in vivo; settings: endogastrically, observation 14 days
Method: (§1) Determination of toxicity of 1-methyl-2-phenylthiomethyl-3-carbethoxy-5-oxy-6-bromindol sulfon as compared with arbidol.
(§2) The administration of the preparations was carried out endogastrically, the period of observation of the animals was 14 days.

[4] = Toxicity (lethal effect, LD50) in rats; type: in vivo; settings: endogastrically, observation 14 days
Method: as §1, §2

[5] = system: influenza virus A/PR/8/34; type: cell-based; settings: influenza virus A/PR/8/34, MDCK cells; concentration not given
influenza virus H3N2 = type: in vivo, mice
[6] = Influenza A virus, MDCK, read-out: percent of inhibition of viral reproduction

SMILES: CCOC(=O)c1c(CSc2ccccc2)n(C)c2cc(Br)c(O)c(CN(C)C)c12 [Arbidol, 1-methyl-2-phenylthiomethyl-3-carbethoxy-4-dimethylaminomethyl-5-oxy-6-bromindol hydrochloride]
- Percent of inhibition of OD 490 ([1]; A or D 5 μg/ml + Amantadin 0.3 μg/ml): 60%
- Percent of inhibition of OD 490 ([1]; A or D 5 μg/ml + Amantadin 1 μg/ml): 68%
- Percent of inhibition of OD 490 ([1]; A or D 5 μg/ml + Amantadin 5 μg/ml): 74%
- Percent of inhibition of OD 490 ([1]; A or D 5 μg/ml + Amantadin 10 μg/ml): 81%
- Percent of inhibition of OD 490 ([1]; A or D 5 μg/ml + Remantadin 0.3 μg/ml): 63%
- Percent of inhibition of OD 490 ([1]; A or D 5 μg/ml + Remantadin 1 μg/ml): 71%
- Percent of inhibition of OD 490 ([1]; A or D 5 μg/ml + Remantadin 5 μg/ml): 74%
- Percent of inhibition of OD 490 ([1]; A or D 5 μg/ml + Remantadin 10 μg/ml): 82%
- Percent of inhibition of OD 490 ([1]; A or D 5 μg/ml alone (Amantadin 0)): 38%
- Percent of inhibition of OD 490 ([1]; A or D 5 μg/ml alone (Remantadin 0)): 38%
- Percent of inhibition of OD 490 ([1]; A or D 10 μg/ml + Amantadin 0.3 μg/ml): 77%
- Percent of inhibition of OD 490 ([1]; A or D 10 μg/ml + Amantadin 1 μg/ml): 81%
- Percent of inhibition of OD 490 ([1]; A or D 10 μg/ml + Amantadin 5 μg/ml): 82%
- Percent of inhibition of OD 490 ([1]; A or D 10 μg/ml + Amantadin 10 μg/ml): 85%
- Percent of inhibition of OD 490 ([1]; A or D 10 μg/ml + Remantadin 0.3 μg/ml): 78%
- Percent of inhibition of OD 490 ([1]; A or D 10 μg/ml + Remantadin 1 μg/ml): 80%
- Percent of inhibition of OD 490 ([1]; A or D 10 μg/ml + Remantadin 5 μg/ml): 82%
- Percent of inhibition of OD 490 ([1]; A or D 10 μg/ml + Remantadin 10 μg/ml): 86%
- Percent of inhibition of OD 490 ([1]; A or D 10 μg/ml alone (Amantadin 0)): 67%
- Percent of inhibition of OD 490 ([1]; A or D 10 μg/ml alone (Remantadin 0)): 67%
- percent of inhibition of viral reproduction ([1]; Arbidol 3 μg/ml + Ribavirin 1 μg/ml): 19%
- percent of inhibition of viral reproduction ([1]; Arbidol 3 μg/ml + Ribavirin 3 μg/ml): 30%
- percent of inhibition of viral reproduction ([1]; Arbidol 3 μg/ml + Ribavirin 10 μg/ml): 52%
- percent of inhibition of viral reproduction ([1]; Arbidol 3 μg/ml + Ribavirin 15 μg/ml): 54%
- percent of inhibition of viral reproduction ([1]; Arbidol 10 μg/ml + Ribavirin 1 μg/ml): 26%
- percent of inhibition of viral reproduction ([1]; Arbidol 10 μg/ml + Ribavirin 3 μg/ml): 35%
- percent of inhibition of viral reproduction ([1]; Arbidol 10 μg/ml + Ribavirin 10 μg/ml): 85%
- percent of inhibition of viral reproduction ([1]; Arbidol 10 μg/ml + Ribavirin 15 μg/ml): 82%
- percent of inhibition of viral reproduction ([1]; Arbidol 15 μg/ml + Ribavirin 1 μg/ml): 43%
- percent of inhibition of viral reproduction ([1]; Arbidol 15 μg/ml + Ribavirin 3 μg/ml): 41%
- percent of inhibition of viral reproduction ([1]; Arbidol 15 μg/ml + Ribavirin 10 μg/ml): 82%
- percent of inhibition of viral reproduction ([1]; Arbidol 15 μg/ml + Ribavirin 15 μg/ml): 80%
- percent of inhibition of viral reproduction ([1]; Arbidol 20 μg/ml + Ribavirin 1 μg/ml): 65%
- percent of inhibition of viral reproduction ([1]; Arbidol 20 μg/ml + Ribavirin 3 μg/ml): 68%
- percent of inhibition of viral reproduction ([1]; Arbidol 20 μg/ml + Ribavirin 10 μg/ml): 80%
- percent of inhibition of viral reproduction ([1]; Arbidol 20 μg/ml + Ribavirin 15 μg/ml): 82%
- inhibition at 3 µg/mL [1, 6]: < 0%
- inhibition at 10 µg/mL [1, 6]: 23%
- inhibition at 15 µg/mL [1, 6]: 40%
- inhibition at 20 µg/mL [1, 6]: 55%
- inhibition of the virus ([1]; combination of 3 μg/ml of arbidol and 3.3 mg of zanamivir (oseltamivir), 2 hours after infection): 90%
- Surviving mice, % ([2]; Arbidol 30 mg/kg + Oseltamivir 0.25 mg/kg): 70%
- Surviving mice, % ([2]; Arbidol 30 mg/kg + Oseltamivir 1.0 mg/kg): 85%
- Surviving mice, % ([2]; Arbidol 30 mg/kg + Oseltamivir 2.5 mg/kg): 100%
- Surviving mice, % ([2]; Arbidol 30 mg/kg alone (Oseltamivir 0 mg/kg)): 65%
- Lethal effect upon administration to mice ([3]; Dose 100 mg/kg): 0/6
- Lethal effect upon administration to mice ([3]; Dose 250 mg/kg): 0/6
- Lethal effect upon administration to mice ([3]; Dose 500 mg/kg): 1/6
- Lethal effect upon administration to mice ([3]; Dose 1000 mg/kg): 3/6
- Lethal effect upon administration to mice ([3]; Dose 3000 mg/kg): 6/6
- LD50 at 14 days ([3]; mouse, in vivo, oral, mice): 860 ± 50 mg/kg
- Lethal effect upon administration to rats ([4]; Dose 100 mg/kg): 0/6
- Lethal effect upon administration to rats ([4]; Dose 250 mg/kg): 0/6
- Lethal effect upon administration to rats ([4]; Dose 500 mg/kg): 1/6
- Lethal effect upon administration to rats ([4]; Dose 1000 mg/kg): 3/6
- Lethal effect upon administration to rats ([4]; Dose 3000 mg/kg): 6/6
- LD50 at 14 days ([4]; rat, in vivo, oral, rats): 1720 ± 70 mg/kg
- Percent of suppression of virus reproduction [5]: 60%
- Percent of surviving mice (influenza virus H3N2; Concentration 15): 80%
- Percent of surviving mice (influenza virus H3N2; Concentration 30, hydrochloride): 80% and 60% and 70%
